Experimental data as given in US10617677B2, “Nuclear transport modulators and uses thereof” (Biogen MA Inc., priority 2012, dated 2020).

Tests used:
Nrf2 pathway = Nrf2 pathway induction in THP-1 cells with or without KEAP1 knockdown (quantitative PCR); format: cell-based, human
Excerpt: THP-1 (human acute monocytic leukemia cells) cells were used to evaluate the effects of Compound 1 on the Nrf2 pathway in an inflammation environment. Nuclear factor (erythroid-derived 2)-like 2 (Nrf2) is an anti-inflammatory transcription factor. Under normal conditions, Nrf2 is kept in the cytoplasm by Kelch like-ECH associated protein 1 (KEAP1), which degrades Nrf2 by ubiquitination. Nrf2 can also move into the nucleus and back into the cytoplasm as a CRM1 cargo. In the current study, Nrf2 was protected from degradation by knocking down KEAP1 with siRNA. Then, KEAP1-depleted cells were treated with TNFα to induce inflammation, and the ability of Compound 1 to reverse inflammation by up-regulation of the Nrf2 pathway was tested.
THP-1 (acute monocytic leukemia) cells were plated in two 10 cm culture dishes (6*10^6 cells/dish) with RPMI-1640 medium (Lonza) supplemented with 10% heat-inactivated fetal bovine serum (Invitrogen) and 2-mercaptoethanol to a final concentration of 0.05 mM. Cells in one dish were transfected with 50 nM of KEAP1 siRNA (Life Technologies, Silencer Select, siRNA ID # s18982) using Lipofectamine RNAiMax (Invitrogen), whereas the cells in the other dish were transfected with 50 nM of control siRNA, Block-iT (Invitrogen). Transfected cells were left for 72 h and the KEAP1 knockdown efficiency was calculated with quantitative PCR using a probe against KEAP1.
Next, the cells from each of the dishes were divided equally into 4 wells in different 6-well plates. One of the wells from each of the plates was pre-treated with 1 μM of Compound 1 for 1 h, followed by 20 ng/mL TNFα for 24 h. The other wells were treated with either 1 μM Compound 1 or 20 ng/mL TNFα or neither for 24 h. Following the treatment, RNA was extracted from the cells using an RNA extraction kit (Qiagen). RNA samples from each treatment group were reverse transcribed and real-time PCR was performed on the corresponding cDNA sequences using probes against Nrf2 and two of its downstream genes, NQO1 and EPHX1. THP-1 cells were transfected with KEAP1 siRNA. 40% knockdown efficiency was achieved. The KEAP1 knockdown cells were treated with either 1 μM of Compound 1 or 20 ng/mL of TNFα or both together for 24 h.

[1] = tested on: inflammation-related CRM1 cargo proteins; assay: Immunofluorescence of nuclear localization of CRM1 cargos in HeLa and THP-1 cells; format: cell-based, human; conditions: 1-10 μM Compound 1 + 20 ng/mL TNFα, 4-24 h
Method: HeLa and THP-1 (human acute monocytic leukemia) cells were treated with inflammation inducing factor, TNFα, alone or in combination with 1-10 μM of Compound 1 for 4-24 h, and then were analyzed by immunofluorescence (IF) for the nuclear localization of inflammation-related CRM1 cargo proteins: IκB, Nrf2, HMGB1, FoxP3, FOXO1a, RxRα, PPARγ and NFκB (p65 subunit).
For the detection of IkB, Nrf2, RxRα and PPARγ localization, cells were pre-incubated with 10 μM Compound 1 for 30 minutes, followed by incubation with 20 ng/mL TNFα for 4 hrs in serum free media. […] IκB was detected by the primary rabbit monoclonal (E130) antibody from Abcam (ab32518); Nrf2 was detected by the primary rabbit polyclonal antibody from Santa Cruz (sc722); RxR alpha was detected by the primary rabbit polyclonal antibody from Santa Cruz (sc553); PPAR gamma was detected by the primary rabbit monoclonal […] antibody from Cell Signaling (#2443); Foxo1A was detected by the primary rabbit monoclonal [C29H4] antibody from Cell Signaling (#2880); HMGB1 was detected by the primary rabbit polyoclonal antibody from Abcam (ab18256); FoxP3 was detected by the primary rabbit polyclonal antibody from Abcam (ab10563); NFκB-p65 was detected by the primary rabbit monoclonal [C22B4] antibody from Cell Signaling (#4764). […]

A549 xenograft tumors = assay: A549 lung carcinoma xenograft in SCID mice; format: in vivo
Method: The A549 cell line was derived from explant culture of alveolar carcinoma tissue from a person. The cells were grown in Ham's F12-K tissue culture media with 10% fetal calf serum and 1% penicillin/streptomycin. Cells were routinely trypsinized and passaged 1:10. Thirty-two (32) female CB-17 SCID mice (Charles River Labs strain code 236), aged 5 to 6 weeks were used with a mean pre-treatment body weight of 16.3 grams. Mice were divided into four (4) groups of eight (8) prior to the initiation of treatment based on tumor volume. On the day of implantation, cells were washed in PBS, trypsinized and resuspended in complete media to a density of 2×10^7 cells/mL prior to being mixed with an equal volume of Matrigel. This mixture was then inoculated subcutaneously into mice in a volume of 0.1 mL using a 23G needle.
Animal weights and condition were recorded daily, and tumors were measured on Mondays, Wednesdays and Fridays with micro-calipers, and tumor volume was calculated as (length×width×width)/2.
Animals with weight loss of more than 20% of their starting weight were euthanized. Mice with weight loss of more than 15% of their starting weight were not treated again until weight loss recovered to less than 5% of their starting weight. Any animals with a tumor volume of more than 1500 mm^3 were euthanized.
Dosing solutions were prepared fresh on each day of dosing. Compound 2 was supplied as a lyophilized powder containing 69.61% Compound 2 with the balance made up of Pluronic F-68 and PVP K29/32. This was prepared by dissolving the lyophilized powder in sterile water. Cisplatin was dissolved at 5 mg/mL in DMSO and diluted 1:10 in sterile water for injection. All test articles were administered in a volume of 0.1 mL/10 g body weight.
Statistical differences between treatment groups were determined using Mann-Whitney Rank Sum or ANOVA tests with a critical value of 0.05.

[2] = 1 μM Compound 1 + 20 ng/mL TNFα, 24 h, KEAP1 knockdown
[3] = 1 μM Compound 1 + 20 ng/mL TNFα, 24 h, without KEAP1 knockdown

For `CC(C)(C)C(=O)NNC(=O)/C=C\n1cnc(-c2cc(C(F)(F)F)cc(C(F)(F)F)c2)n1` [Compound 1, (Z)-3-(3-(3,5-bis(trifluoromethyl)phenyl)-1H-1,2,4-triazol-1-yl)-N′-pivaloylacrylohydrazide], the “increase in NQO1 expression” value (Nrf2 pathway; [2]) was 4 fold, the “increase in Nrf2 expression compared to untreated cells” value (Nrf2 pathway; [2]) was 2.5 fold and the “increase in NQO1 expression” value (Nrf2 pathway; [3]) was 2 fold. The “increase in Nrf2 mRNA levels” value (Nrf2 pathway; [3]) was no more than 3 fold, the “induction of EPHX1 expression” value (Nrf2 pathway; [3]) was 1.5 fold and the “EPHX1 mRNA expression” value (Nrf2 pathway; 1 μM Compound 1, presence or absence of TNFα) was “up-regulated the expression of EPHX1”. For the same compound, the Nrf2 expression (Nrf2 pathway; 1 μM Compound 1 alone, with or without KEAP1 knockdown) was “did not have any significant effect”, the Nrf2 signaling (Nrf2 pathway; 1 μM for 24 hrs in the presence of 20 ng/mL TNFα) was “up-regulated Nrf2 signaling” and the “nuclear localization of IκB, Nrf2, HMGB1, FoxP3, FOXO1a, RxRα, PPARγ and NFκB” value [1] was “nuclear localization of the above cargos, even in the presence of TNFα”.
With `O=C(/C=C\n1cnc(-c2cc(C(F)(F)F)cc(C(F)(F)F)c2)n1)NNC(=O)CN1CCOCC1` [Compound 2, (Z)-3-(3-(3,5-bis(trifluoromethyl)phenyl)-1H-1,2,4-triazol-1-yl)-N′-(2-morpholinoacetyl)acrylohydrazide] the “tumor growth versus vehicle control group (mean AUC of tumor volume, one-way ANOVA)” value (A549 xenograft tumors; Compound 2 5 or 10 mg/kg PO, cisplatin 5 mg/kg IP) was “antitumor effect at both 5 mg/kg and 10 mg/kg doses in a dose dependent manner”, the mean tumor volume (A549 xenograft tumors; Day 1, 5 mg/kg PO MWF) was 101 mm^3 and the mean tumor volume (A549 xenograft tumors; Day 1, 10 mg/kg PO MWF) was 101 mm^3. The mean tumor volume (A549 xenograft tumors; Day 29, 5 mg/kg PO MWF) was 1231 mm^3 and the mean tumor volume (A549 xenograft tumors; Day 29, 10 mg/kg PO MWF) was 686 mm^3.
